Experimental data reported in ChEMBL document CHEMBL3785091, “Discovery of AZD8165 a clinical candidate from a novel series of neutral thrombin inhibitors” (Medchemcomm, 2016).
In brackets after ≈: the same amount, converted by molar mass.

Key:
[1] = Bioavailability in Sprague-Dawley rat; format: ADME, organism-based; conditions: in vivo
[2] = Kinetic solubility of compound in HBSS-MES buffer at 5 to 10 mM at pH 6.8 by LC-UV/MS analysis; format: physicochemical; conditions: read-out: Kinetic_solubility
Rattus norvegicus [3] = organism: Rattus norvegicus; assay: Cardiotoxicity in rat by electrophysiology assay relative to control; format: toxicity, organism-based; conditions: in vivo
Mus musculus = organism: Mus musculus; assay: Cardiotoxicity in mouse by electrophysiology assay relative to control; format: toxicity, organism-based; conditions: in vivo
Cavia porcellus = organism: Cavia porcellus; assay: Cardiotoxicity in guinea pig by cardiac electrophysiology assay relative to control; format: toxicity, organism-based, Heart; conditions: in vivo
Rattus norvegicus [4] = organism: Rattus norvegicus; assay: Toxicity in rat by irwin assay relative to control; format: organism-based; conditions: in vivo
Rattus norvegicus [5] = organism: Rattus norvegicus; assay: Toxicity in rat arterial thrombosis model assessed as increase in bleeding time; format: organism-based; conditions: in vivo
Homo sapiens [6] = assay: Toxicity in po dosed human; format: organism-based; conditions: in vivo
[7] = Drug excretion in dog bile assessed as (5S)-N-[5-Chloro-2-(1H-tetrazol-1-yl)benzyl]-1-[(2R)-2-(4-fluorophenyl)-2-hydroxyacetyl]-4,5-dihydro-1H-pyrazole-5-carboxamide level; format: ADME, tissue-based, Canis lupus familiaris; conditions: in vivo
[8] = Drug excretion in dog urine assessed as compound unchanged; format: ADME, tissue-based, Canis lupus familiaris; conditions: read-out: Drug excretion
Rattus norvegicus [9] = assay: Oral bioavailability in rat assessed as (5S)-N-[5-Chloro-2-(1H-tetrazol-1-yl)benzyl]-1-[(2R)-2-(4-fluorophenyl)-2-hydroxyacetyl]-4,5-dihydro-1H-pyrazole-5-carboxamide level; format: ADME, organism-based; conditions: in vivo
Rattus norvegicus [10] = assay: Bioavailability in rat dosed via colon route assessed as (5S)-N-[5-Chloro-2-(1H-tetrazol-1-yl)benzyl]-1-[(2R)-2-(4-fluorophenyl)-2-hydroxyacetyl]-4,5-dihydro-1H-pyrazole-5-carboxamide level; format: ADME, organism-based; conditions: in vivo, other
[11] = Drug metabolism in rat urine; format: ADME, tissue-based
[12] = Drug metabolism in dog urine; format: ADME, tissue-based, Canis lupus familiaris
[13] = Drug excretion in rat bile assessed as (5S)-N-[5-Chloro-2-(1H-tetrazol-1-yl)benzyl]-1-[(2R)-2-(4-fluorophenyl)-2-hydroxyacetyl]-4,5-dihydro-1H-pyrazole-5-carboxamide level; format: ADME, tissue-based; conditions: in vivo
Canis familiaris = assay: Oral bioavailability in dog assessed as (5S)-N-[5-Chloro-2-(1H-tetrazol-1-yl)benzyl]-1-[(2R)-2-(4-fluorophenyl)-2-hydroxyacetyl]-4,5-dihydro-1H-pyrazole-5-carboxamide level; format: ADME, organism-based, Canis lupus familiaris; conditions: in vivo
[14] = Drug excretion in human urine; format: ADME, tissue-based
[15] = Drug excretion in rat urine assessed as compound unchanged; format: ADME, tissue-based; conditions: read-out: Drug excretion
Homo sapiens [16] = assay: Oral bioavailability in human; format: ADME, organism-based; conditions: in vivo

O=C(NCc1cc(Cl)ccc1-n1cnnn1)[C@@H]1C[C@@H]2C[C@@H]2N1C(=O)[C@H](O)c1ccccc1
bioavailability [1]: 63%
solubility kinetic [2]: 97 µM (≈ 43.9 µg/mL)

CC(=O)O[C@@H](C(=O)N1N=CC[C@H]1C(=O)NCc1cc(Cl)ccc1-n1cnnn1)c1ccc(F)cc1
solubility kinetic [2]: 87.5 µM (≈ 43.7 µg/mL)

CC(C)(C)[C@@H](O)C(=O)N1C[C@@H]2C[C@@H]2[C@H]1C(=O)NCc1cc(Cl)ccc1-n1cnnn1
bioavailability [1]: 57%
solubility kinetic [2]: 97 µM (≈ 42 µg/mL)

O=C(NCc1cc(Cl)ccc1-n1cnnn1)[C@@H]1C[C@H]2C[C@H]2N1C(=O)[C@H](O)c1ccccc1
bioavailability [1]: 86%
solubility kinetic [2]: 100 µM (≈ 45.3 µg/mL)

CCCC[C@@H](O)C(=O)N1N=CC[C@H]1C(=O)NCc1cc(Cl)ccc1-n1cnnn1
bioavailability [1]: 70%
solubility kinetic [2]: 59 µM (≈ 24.8 µg/mL)

CCCC(=O)O[C@@H](C(=O)N1N=CC[C@H]1C(=O)NCc1cc(Cl)ccc1-n1cnnn1)c1ccc(F)cc1
solubility kinetic [2]: < 1 µM

O=C(NCc1cc(Cl)ccc1-n1cnnn1)[C@@H]1CC=NN1C(=O)[C@H](O)c1ccccc1
bioavailability [1]: 60%
solubility kinetic [2]: 98 µM (≈ 43.1 µg/mL)

O=C(NCc1cc(Cl)ccc1-n1cnnn1)[C@@H]1CC=NN1C(=O)[C@H](O)c1ccc(F)cc1
fold change (FC) (Rattus norvegicus [3]): > 40
fold change (FC) (Mus musculus): > 40
fold change (FC) (Cavia porcellus): > 40
bioavailability [1]: 75%
solubility kinetic [2]: 95 µM (≈ 43.5 µg/mL)
fold change (FC) (Rattus norvegicus [4]): > 24
fold change (FC) (Rattus norvegicus [5]): 2

CCCCC(=O)O[C@@H](C(=O)N1N=CC[C@H]1C(=O)NCc1cc(Cl)ccc1-n1cnnn1)c1ccc(F)cc1
solubility kinetic [2]: 20.5 µM (≈ 11.1 µg/mL)

CCC(=O)O[C@@H](C(=O)N1N=CC[C@H]1C(=O)NCc1cc(Cl)ccc1-n1cnnn1)c1ccc(F)cc1 [AZD-8165]
MTD (Homo sapiens [6]): 2.5 mg
fold change (FC) (Rattus norvegicus [3]): > 40
fold change (FC) (Mus musculus): > 40
Drug excretion [7]: metabolite_notdetected
dose excreted [8]: 18%
fold change (FC) (Cavia porcellus): > 40
F (Rattus norvegicus [9]): 64%
F (Rattus norvegicus [10]): 30%
solubility kinetic [2]: 2.5 µM (≈ 1.28 µg/mL)
Drug metabolism [11]: metabolite_detected
fold change (FC) (Rattus norvegicus [4]): > 24
Drug metabolism [12]: metabolite_detected
Drug excretion [13]: metabolite_notdetected
F (Canis familiaris): 52%
Drug excretion [14]: metabolite_notdetected
dose excreted [15]: 66%

CCOC(=O)CN[C@@H](C(=O)N1CC[C@H]1C(=O)NCc1ccc(/C(N)=N\O)cc1)C1CCCCC1 [XIMELAGATRAN]
F (Homo sapiens [16]): 20%
